# In PMC8549791, “Discovery of SARS-CoV-2 M^pro peptide inhibitors from modelling substrate and ligand binding” (Chemical Science, 2021):
# “Also recorded” adds a separate entry of the source. Read-outs that look alike come from different tables or passages of the source. Ends that are not written are not given here.
# Tests used:
# [1] = system: M^pro dimer; format: binding, SARS-CoV-2; conditions: pH 6.9
# [2] = system: SARS-CoV M^pro; conditions: cited from earlier work
# [3] = biological target: T1, SARS-CoV-2 M^pro (Severe acute respiratory syndrome coronavirus 2, UniProt P0DTD1); conditions: pH 7.5
# [4] = biological target: T1, SARS-CoV-2 M^pro
# [5] = biological target: T1, SARS-CoV-2 M^pro; assay: biochemical; format: biochemical; set-up: The main protease (M^pro) of SARS-CoV-2; made in house
# [6] = biological target: T1, SARS-CoV-2 M^pro; format: biochemical; set-up: The main protease (M^pro) of SARS-CoV-2; made in house
# [7] = biological target: T1, SARS-CoV-2 M^pro; assay: biochemical; set-up: The main protease (M^pro) of SARS-CoV-2; made in house; conditions: for Hill slope: pH 7.5
# [8] = biological target: T1, SARS-CoV-2 M^pro; format: biochemical; set-up: The main protease (M^pro) of SARS-CoV-2; made in house; conditions: for depletion of s01 in presence of inhibitor: pH 6.9
# [9] = biological target: T1, SARS-CoV-2 M^pro; conditions: cited from earlier work
molecule,measurement,setting,value
REPMLQ↓SADAQ [s07],complexes with M^pro dimer after 1 min,[1],only M^pro complexes with intact substrates were observed
same,turnover by SARS-CoV M^pro (in words),[2],slow turnover
same,turnover / cleavage (in words),[3],Slow turnover
same,turnover (fast/medium/slow),[4],slow
same,substrate ion depletion after 12 min,[4]; pH 6.9,below 50%
KYTFWQYSQFY-NH2 [p12],IC50 ratio R,[5],3.61
same,mode of inhibition,[5],competitive inhibition
same,IC50,[5]; IC50 at [S] = 2 µM,4.53 ± 0.9 µM
same,IC50,[5]; IC50 at [S] = 10 µM,4.99 ± 0.22 µM
same,IC50,[5]; IC50 at [S] = 20 µM,7.49 ± 0.04 µM
same,IC50,[5]; IC50 at [S] = 40 µM,16.3 ± 0.52 µM
same,cleavage products by LCMS,[6],not observed
same,IC50,[7],5.36 ± 2.17 µM
same,Hill slope,[7],1.25 ± 0.06
same,depletion of s01 in presence of inhibitor,[8],95%
LTINWQKYFNT-NH2 [p15],IC50 ratio R,[5],4.56
same,mode of inhibition,[5],competitive inhibition
same,IC50,[5]; IC50 at [S] = 2 µM,8.26 ± 0.06 µM
same,IC50,[5]; IC50 at [S] = 10 µM,12 ± 0.34 µM
same,IC50,[5]; IC50 at [S] = 20 µM,18.83 ± 0.18 µM
same,IC50,[5]; IC50 at [S] = 40 µM,37.7 ± 2.02 µM
same,cleavage products by LCMS,[6],not observed
same,IC50,[7],5.31 ± 1.08 µM
same,Hill slope,[7],1.17 ± 0.16
same,depletion of s01 in presence of inhibitor,[8],70%
FYPKLQ↓SSQAW [s11],complexes with M^pro dimer after 1 min,[1],complexes of the M^pro dimer and the cleavage products were observed
same,turnover by SARS-CoV M^pro (in words),[2],medium turnover
same,turnover / cleavage (in words),[3],next preferred substrate for catalysis
same,turnover (fast/medium/slow),[4],fast
same,substrate ion depletion after 1 min,[4]; pH 6.9,> 70%
same,substrate ion depletion after 6 min,[4]; pH 6.9,> 90%
SGVTFQ↓SAVKR [s02],complexes with M^pro dimer after 1 min,[1],complexes of the M^pro dimer and the cleavage products were observed
same,relative catalytic efficiency with SARS-CoV M^pro (in words),[2],highest relative efficiencies
same,turnover by SARS-CoV M^pro (in words),[2],fast turnover
same,turnover / cleavage (in words),[3],hydrolysed less efficiently than s11
same,turnover (fast/medium/slow),[4],medium
same,substrate ion depletion after 6 min,[4]; pH 6.9,> 70%
same,substrate ion depletion after 12 min,[4]; pH 6.9,> 90%
WFTLKQYWQTN-NH2 [p16],IC50 ratio R,[5],4.85
same,mode of inhibition,[5],competitive inhibition
same,IC50,[5]; IC50 at [S] = 2 µM,4.79 ± 0.08 µM
same,IC50,[5]; IC50 at [S] = 10 µM,6.66 ± 0.41 µM
same,IC50,[5]; IC50 at [S] = 20 µM,10.4 ± 0.53 µM
same,IC50,[5]; IC50 at [S] = 40 µM,23.2 ± 0.42 µM
same,cleavage products by LCMS,[6],not observed
same,IC50,[7],3.76 ± 0.51 µM
same,Hill slope,[7],1.19 ± 0.16
same,depletion of s01 in presence of inhibitor,[8],78%
O=c1c2ccccc2[se]n1-c1ccccc1 [Ebselen],mode of inhibition,[5],did not support competitive inhibition
same,mode of inhibition (in words),[9],reacts multiple times with M^pro; also recorded: complex mode of inhibition
KYLTWQNSQIN-NH2 [p13],mode of inhibition,[5],competitive inhibition
same,IC50,[5]; IC50 at [S] = 2 µM,2.97 ± 0.21 µM
same,IC50,[5]; IC50 at [S] = 10 µM,4.28 ± 0.8 µM
same,IC50,[5]; IC50 at [S] = 20 µM,6.77 ± 0.46 µM
same,IC50,[5]; IC50 at [S] = 40 µM,18.1 ± 0.96 µM
same,cleavage products by LCMS,[6],not observed
same,M^pro dimer/s01-cleavage product complexes in presence of inhibitor,[8],the abundance of these complexes was lower than the abundance of M^pro/p13 complexes
same,depletion of s01 in presence of inhibitor,[8],91%
